Assays:
[1] = In vivo pharmacokinetic study in mice, oral ibrutinib (plasma, LC-MS/MS); details: for AUC(0-t) / Cmax / bioavailability: plasma, po; for AUC(0-t): Ibrutinib AUC(0-last); for Cmax: Ibrutinib Cmax; for increase in ibrutinib AUC: male FVB wild-type mice; for systemic levels of ibrutinib: ibrutinib 10 mg/kg orally
Description: (§1) Experiments were performed with male and female mice from inbred wild-type strains (FVB, C57BL/6, DBA) or with age- and sex-matched genetically engineered mice with a deficiency of the Cyp3a locus [(8 genes; FVB.129P2-Cyp3a13^tm1Ahs Del (5Cyp3a57-Cyp3a59)1Ahs); ref. [16]; CYP3A^−/−], a deficiency of the intestinal transporter OATP2B1 (ref. [17]; OATP2B1 ^−/−), or the hepatic transporter OATP1B2 (ref. [18]; OATP1B2 ^−/−). […] The studies were approved by the University Laboratory Animal Resources Animal Care and Use Committee at The Ohio State University (Columbus, OH). […] For in vivo studies, drugs were prepared in standard vehicles ([19, 20]). Details regarding the preparation of drugs are provided in the Supplementary Methods.
(§2) Pharmacokinetic studies were performed as described previously ([21]). Further details are provided in the Supplementary Methods.
(§3) The lower limit of quantification was 5 ng/mL, using 5-μL sample volumes. Details regarding the analytic method are provided in the Supplementary Methods.
(§4) Ketoconazole was prepared for oral administration as a 10-mg/mL suspension in PEG400, and cobicistat as a 6-mg/mL suspension in corn oil.
(§5) Pharmacokinetic studies were performed as previously described.
The analytical equipment consisted of a Vanquish UHPLC system, a TSQ Quantum Ultra triple quadrupole mass spectrometer from Thermo Fisher Scientific, and Thermo Trace Finder General Quan system software (version 3.3). An Accucore Vanquish C18 column (100 × 2.1 mm, dp = 1.5 μm; Thermo Fisher Scientific) was protected by a corresponding XBridgeBEH C18, 5-μm guard column. The injection volume of sample was 5.0 μL. The temperature of the autosampler rack was 4 °C, and the temperature of the column was 40 °C. Mobile phase A consisted of water with 0.1% (v/v) formic acid and mobile phase B consisted of acetonitrile: methanol (1:3) with 0.1% (v/v) formic acid. The total run time was 5 min. The mobile phase was delivered at a flow rate of 0.4 mL/min, and the optimized gradient contained time-varying amounts of mobile phase B, as follows: 0-0.5 min, 10% B; 0.5-1.5 min, 95% B; 1.5-2.9 min, 95% B; 2.9-3.0 min, 10% B; and 3.0-5.0 min, 10% B. The mass spectrometric assay settings included a positive voltage applied to the ESI capillary of 3500 V, a capillary temperature of 342 °C, and a vaporizer temperature of 358 °C. Argon was used a collision gas at a pressure of 1.5 mTorr. […] For sample extraction by protein precipitation, 5 µL of plasma, 5 µL of microsomal suspension, or 10 µL of homogenized tissue were added to a tube containing 60 µL of internal standard solution and 20 µL of methanol. Samples were then vortex-mixed, centrifuged at 13,000 rpm for 9.5 min, and supernatants collected and stored frozen until analysis. […] The lower limit of quantification was 5 ng/mL, using 5-µL sample volumes.

[2] = In vivo pharmacokinetic study in mice, intravenous ibrutinib (plasma); details: for AUC(0-t) / Cmax: female, FVB, mouse, plasma, iv, 1 mg/kg, ibrutinib 1 mg/kg IV, mean (SD); for AUC(0-t): Ibrutinib AUC(0-last); for Cmax: Ibrutinib Cmax
Description: as §1, §2, §3, §4, §5

[3] = population PK model estimate, mice
[4] = set-up: method as in earlier work; details: acid dissociation constant; PBPK model parameter; ref [17, 18] and Drugbank; cited from earlier work
[5] = set-up: method as in earlier work; details: unbound drug in the plasma; PBPK model parameter; ref [17, 18] and Drugbank; cited from earlier work
[6] = Cardiac distribution of ibrutinib in mice (heart-to-plasma ratio); details: female wild-type mice; six hours after ibrutinib 10 mg/kg orally; cobicistat 30 mg/kg pretreatment vs vehicle; P < 0.01
Description: Noncompartmental analysis using Phoenix WinNonlin version 8.0 (Certara) was used to derive pharmacokinetic parameters. The maximum plasma concentration (Cmax) was determined by visual inspection of the data from the concentration–time curves. The linear trapezoidal rule was used to obtain the AUC over the sample collection interval.
Pharmacokinetic studies were performed as previously described. […] In most cases, samples were collected at 5, 15, and 30 min, and at 1, 3, and 4, 6 or 8 h. The first three samples were obtained from a submandibular vein using a 5 mm Goldenrod sterile animal lancet and heparinized capillary tube. For the fourth and fifth samples, mice were anesthetized under 2% isoflurane and whole blood was taken from the retro-orbital venous plexus using capillary tubes. The final sample was obtained by cardiac puncture using a syringe and needle. Hearts were collected at the terminal time-point and were rinsed with PBS. Blood samples were centrifuged at 13,000 rpm for 5 min and the plasma supernatant was collected. Plasma and organs immediately placed on dry ice, and stored at -80 °C until analysis.

[7] = female, C57BL/6, mouse, 10 mg/kg, female OATP2B1(-/-) mice, ibrutinib 10 mg/kg PO, no co-treatment, mean (SD)
[8] = female, C57BL/6, mouse, 10 mg/kg, female wild-type C57BL/6 mice, ibrutinib 10 mg/kg PO, no co-treatment, mean (SD)
[9] = female, DBA, mouse, 10 mg/kg, female OATP1B2(-/-) mice, ibrutinib 10 mg/kg PO, no co-treatment, mean (SD)
[10] = female, DBA, mouse, 10 mg/kg, female wild-type DBA mice, ibrutinib 10 mg/kg PO, no co-treatment, mean (SD)
[11] = female, FVB, mouse, 4 mg/kg, female wild-type FVB mice, ibrutinib 4 mg/kg oral, cotreatment cobicistat 30 mg/kg, mean (SE)
[12] = female, FVB, mouse, 10 mg/kg, female CYP3A-/- mice, ibrutinib 10 mg/kg oral, cotreatment cobicistat 30 mg/kg, mean (SE)
[13] = female, FVB, mouse, 10 mg/kg, female CYP3A-/- mice, ibrutinib 10 mg/kg oral, cotreatment corn oil, mean (SE)
[14] = female, FVB, mouse, 10 mg/kg, female CYP3A-/- mice, ibrutinib 10 mg/kg oral, no cotreatment, mean (SE)
[15] = female, FVB, mouse, 10 mg/kg, female wild-type FVB mice, ibrutinib 10 mg/kg oral single dose, cotreatment cobicistat 30 mg/kg, mean (SE)
[16] = female, FVB, mouse, 10 mg/kg, female wild-type FVB mice, ibrutinib 10 mg/kg oral single dose, cotreatment corn oil, mean (SE)
[17] = female, FVB, mouse, 10 mg/kg, female wild-type FVB mice, ibrutinib 10 mg/kg oral, cotreatment PEG400, mean (SE)
[18] = female, FVB, mouse, 10 mg/kg, female wild-type FVB mice, ibrutinib 10 mg/kg oral, cotreatment cobicistat 30 mg/kg, steady-state, mean (SE)
[19] = female, FVB, mouse, 10 mg/kg, female wild-type FVB mice, ibrutinib 10 mg/kg oral, cotreatment corn oil, steady-state, mean (SE)
[20] = female, FVB, mouse, 10 mg/kg, female wild-type FVB mice, ibrutinib 10 mg/kg oral, cotreatment ketoconazole 50 mg/kg, mean (SE)
[21] = female, FVB, mouse, 10 mg/kg, female wild-type FVB mice, ibrutinib 10 mg/kg oral, no cotreatment, mean (SE)
[22] = female, FVB, mouse, 30 mg/kg, female wild-type FVB mice, ibrutinib 30 mg/kg oral, no cotreatment, mean (SE)
[23] = male, C57BL/6, mouse, 10 mg/kg, male OATP2B1(-/-) mice, ibrutinib 10 mg/kg PO, no co-treatment, mean (SD)
[24] = male, C57BL/6, mouse, 10 mg/kg, male wild-type C57BL/6 mice, ibrutinib 10 mg/kg PO, no co-treatment, mean (SD)
[25] = male, FVB, mouse, 10 mg/kg, male wild-type FVB mice, ibrutinib 10 mg/kg PO, co-treatment No Vehicle (cobicistat experiment), mean (SD)
[26] = male, FVB, mouse, 10 mg/kg, male wild-type FVB mice, ibrutinib 10 mg/kg PO, co-treatment None (ketoconazole experiment), mean (SD)
[27] = male, FVB, mouse, 10 mg/kg, male wild-type FVB mice, ibrutinib 10 mg/kg PO, co-treatment PEG400, mean (SD)
[28] = male, FVB, mouse, 10 mg/kg, male wild-type FVB mice, ibrutinib 10 mg/kg PO, co-treatment cobicistat, mean (SD)
[29] = male, FVB, mouse, 10 mg/kg, male wild-type FVB mice, ibrutinib 10 mg/kg PO, co-treatment corn oil, mean (SD)
[30] = male, FVB, mouse, 10 mg/kg, male wild-type FVB mice, ibrutinib 10 mg/kg PO, co-treatment ketoconazole, mean (SD)
[31] = female CYP3A(-/-) mice, co-treatment cobicistat
[32] = female CYP3A(-/-) mice, co-treatment corn oil
[33] = female wild-type FVB mice, co-treatment cobicistat
[34] = female wild-type FVB mice, co-treatment corn oil

C=CC(=O)N1CCC[C@@H](n2nc(-c3ccc(Oc4ccccc4)cc3)c3c(N)ncnc32)C1 [Ibrutinib]
ibrutinib AUC increase ([1]; CYP3A-/- mice compared with wild-type mice, oral ibrutinib): about 8 fold | pharmacokinetic profile of ibrutinib with vs without cobicistat ([1]; CYP3A-/- mice, oral ibrutinib, P > 0.05): similar | increase in exposure to ibrutinib ([1]; female wild-type mice, oral ibrutinib 10 mg/kg 30 minutes after oral ketoconazole 50 mg/kg vs vehicle): about 11 fold | AUC(0-t) [1, 7]: 1750 ng·h/mL | AUC(0-t) [1, 8]: 1450 ng·h/mL | Cmax [1, 7]: 1250 ng/mL | Cmax [1, 8]: 1420 ng/mL | AUC(0-t) [1, 9]: 2100 ng·h/mL | AUC(0-t) [1, 10]: 2720 ng·h/mL | Cmax [1, 9]: 2170 ng/mL | Cmax [1, 10]: 1960 ng/mL | AUC(0-t) [1, 11]: 1200 ng·h/mL | Cmax [1, 11]: 589 ng/mL | bioavailability ([1]; female, FVB, mouse, 4 mg/kg, female wild-type FVB mice, ibrutinib 4 mg/kg oral, cotreatment cobicistat 30 mg/kg): 58% | AUC(0-t) [1, 12]: 1660 ng·h/mL | AUC(0-t) [1, 13]: 1410 ng·h/mL | AUC(0-t) [1, 14]: 2350 ng·h/mL | AUC(0-t) [1, 15]: 2600 ng·h/mL | AUC(0-t) [1, 16]: 284 ng·h/mL | AUC(0-t) [1, 17]: 768 ng·h/mL | AUC(0-t) [1, 18]: 2250 ng·h/mL | AUC(0-t) [1, 19]: 459 ng·h/mL | AUC(0-t) [1, 20]: 8320 ng·h/mL | AUC(0-t) [1, 21]: 301 ng·h/mL | Cmax [1, 12]: 845 ng/mL | Cmax [1, 13]: 1390 ng/mL | Cmax [1, 14]: 1760 ng/mL | Cmax [1, 15]: 1440 ng/mL | Cmax [1, 16]: 292 ng/mL | Cmax [1, 17]: 663 ng/mL | Cmax [1, 18]: 925 ng/mL | Cmax [1, 19]: 394 ng/mL | Cmax [1, 20]: 3100 ng/mL | Cmax [1, 21]: 430 ng/mL | bioavailability ([1]; female, FVB, mouse, 10 mg/kg, female CYP3A-/- mice, ibrutinib 10 mg/kg oral, cotreatment cobicistat 30 mg/kg): 32% | bioavailability ([1]; female, FVB, mouse, 10 mg/kg, female CYP3A-/- mice, ibrutinib 10 mg/kg oral, cotreatment corn oil): 27% | bioavailability ([1]; female, FVB, mouse, 10 mg/kg, female CYP3A-/- mice, ibrutinib 10 mg/kg oral, no cotreatment): 45% | bioavailability ([1]; female, FVB, mouse, 10 mg/kg, female wild-type FVB mice, ibrutinib 10 mg/kg oral single dose, cotreatment cobicistat 30 mg/kg): 50% | bioavailability ([1]; female, FVB, mouse, 10 mg/kg, female wild-type FVB mice, ibrutinib 10 mg/kg oral single dose, cotreatment corn oil): 5.5% | bioavailability ([1]; female, FVB, mouse, 10 mg/kg, female wild-type FVB mice, ibrutinib 10 mg/kg oral, cotreatment cobicistat 30 mg/kg, steady-state): 43% | bioavailability ([1]; female, FVB, mouse, 10 mg/kg, female wild-type FVB mice, ibrutinib 10 mg/kg oral, cotreatment corn oil, steady-state): 8.8% | bioavailability ([1]; female, FVB, mouse, 10 mg/kg, female wild-type FVB mice, ibrutinib 10 mg/kg oral, no cotreatment): 5.8% | AUC(0-t) [1, 22]: 1710 ng·h/mL | Cmax [1, 22]: 554 ng/mL | bioavailability ([1]; female, FVB, mouse, 30 mg/kg, female wild-type FVB mice, ibrutinib 30 mg/kg oral, no cotreatment): 11% | increase in ibrutinib AUC ([1]; cobicistat): 7 fold | increase in ibrutinib AUC ([1]; ketoconazole): 10 fold | AUC(0-t) [1, 23]: 1770 ng·h/mL | AUC(0-t) [1, 24]: 1390 ng·h/mL | Cmax [1, 23]: 1630 ng/mL | Cmax [1, 24]: 1380 ng/mL | AUC(0-t) [1, 25]: 520 ng·h/mL | AUC(0-t) [1, 26]: 429 ng·h/mL | AUC(0-t) [1, 27]: 636 ng·h/mL | AUC(0-t) [1, 28]: 4340 ng·h/mL | AUC(0-t) [1, 29]: 663 ng·h/mL | AUC(0-t) [1, 30]: 6640 ng·h/mL | Cmax [1, 25]: 360 ng/mL | Cmax [1, 26]: 404 ng/mL | Cmax [1, 27]: 348 ng/mL | Cmax [1, 28]: 1360 ng/mL | Cmax [1, 29]: 243 ng/mL | Cmax [1, 30]: 1260 ng/mL | systemic levels of ibrutinib ([1]; mice lacking OATP1B2 vs wild-type): not altered | systemic levels of ibrutinib ([1]; mice lacking OATP2B1 vs wild-type): not altered | increase in exposure to ibrutinib ([1]; wild-type mice, oral ibrutinib 10 mg/kg after cobicistat 30 mg/kg, single dose or steady-state (day 5)): about 9 fold | AUC(0-t) [2, 31]: 895 ng·h/mL | AUC(0-t) [2, 32]: 1170 ng·h/mL | AUC(0-t) [2, 33]: 1010 ng·h/mL | AUC(0-t) [2, 34]: 521 ng·h/mL | Cmax [2, 31]: 1440 ng/mL | Cmax [2, 32]: 1860 ng/mL | Cmax [2, 33]: 1540 ng/mL | Cmax [2, 34]: 1410 ng/mL | increase in ibrutinib exposure ([2]; intravenous ibrutinib, CYP3A deficiency vs wild-type): 2 fold | effect of cobicistat on exposure to ibrutinib ([2]; intravenous ibrutinib, CYP3A-/- mice): did not further increase exposure | increase in ibrutinib exposure ([2]; intravenous ibrutinib, wild-type mice, oral cobicistat pretreatment vs vehicle): 2 fold | IIV Ka ([3]; inter-individual variability): 0.209 | IIV Lag ([3]; inter-individual variability): 0.0264 | IIV Vc ([3]; inter-individual variability): 0.167 | IIV Vp ([3]; inter-individual variability): 0.295 | Ka (absorption rate constant) [3]: 0.340 h⁻¹ | Lag (lag time) [3]: 0.0324 h | RV IBU ([3]; residual variability): 0.425 | pKa [4]: 3.78 | fu, plasma [5]: 0.027 | heart levels of ibrutinib normalized to plasma levels [6]: substantially lower levels

— publication PMC8691714 (Cancer Research Communications, 2021)
